Laboratory results published in patent US20060019241A1, “Na+ and CI-coupled transport system for endogenous opioid peptides” (priority 2004, published 2006).
“Also recorded” adds a separate entry of the source.

Experiments:
Assay type in all cases: cell-based, human
[1] = tested on: deltorphin II transport system in Tat-ARPE-19 cells; assay: Inhibition of [^3H]deltorphin II uptake in Tat-ARPE-19 cells; conditions: for [^3H] Deltorphin II uptake / [^3H] Deltorphin II uptake (%) of control: Tat-ARPE-19 cells, 30 minutes, NaCl, inhibitor 1 mM; for [^3H] Deltorphin II uptake (%) of control: control = 100
Source text: (§1) Stable transfection of ARPE-19 cells with pcDNA-Tat cDNA. The pGEM2-Tat cDNA construct contained as the insert a 295 basepair (bp) fragment encoding the first exon of HIV-1 Tat gene joined to a 145 bp pET3A transcription terminator. The entire insert (440 bp) was removed from the construct by digestion with PstI and EcoRI and ligated into the multiple cloning region of pcDNA3.1 (−) vector at PstI/EcoRI site so that the insert is downstream of the cytomegalovirus (CMV) promoter. The resultant construct was sequenced to confirm the orientation of the insert. This construct was electroporated into ARPE-19 cells and the stably transfected cell clones were isolated in the presence of Geneticin (G418). To serve as a control, empty pcDNA3.1 vector was electroporated into ARPE-19 cells in an identical manner and the clones harboring the vector were selected by G418 resistance.
(§2) Uptake measurements in control ARPE-19 cells and Tat-ARPE-19 cells. Control ARPE-19 cells and Tat-ARPE-19 cells were maintained in 75-cm^2 culture flasks in Dulbecco's modified Eagle's medium/F12 medium (1:1, volume/volume (v/v)) in the presence of fetal bovine serum (10%) and G418 (100 μg/ml). For uptake measurements, cells were released by trypsin treatment and seeded in 24-well culture plates at an initial density of 0.1×10^6 cells/well. The culture medium was replaced with fresh medium on the second day following the initial seeding and uptake measurements were made on the third day. […] After incubation at 37° C. for a desired time, uptake was terminated by the removal of the medium and washing of the cells with ice-cold uptake buffer. The cells were then dissolved in 1% SDS in 0.2 M NaOH and used for measurement of radioactivity. The uptake buffer in most experiments was 25 mM Hepes/Tris (pH 7.5), containing 140 mM NaCl, 5.4 mM KCl, 1.8 mM CaCl2, 0.8 mM MgSO4 and 5 mM glucose.
When the influence of Na^+ on the uptake process was investigated, the concentration of NaCl in the uptake buffer was adjusted, as desired, by isoosmotically replacing NaCl with N-methyl-D-glucamine chloride. To assess the influence of Cl^− on the uptake process, the composition of the uptake medium was modified by replacing KCl and CaCl2 with equimolar concentrations of potassium gluconate and calcium gluconate and the concentration of NaCl was adjusted, as desired, by iso-osmotically replacing NaCl with sodium gluconate. Saturation kinetics were analysed by fitting the data to the Michaelis-Menten equation. The Michaelis-Menten constant, Kt, was calculated by non-linear regression analysis and then confirmed by linear regression. Na^+- and Cl^−-activation kinetics were analyzed by fitting the data to the Hill equation and the Hill coefficients for Na^+ and Cl^− (h; the number of Na^+ and Cl^− ions involved in the activation process) and the K0.5 values (the concentration of Na^+ and Cl^−-needed for half-maximal activation) were determined from the analysis. Again, these constants were first calculated by non-linear regression methods and subsequently confirmed by linear regression methods. Experiments were repeated three times in duplicate and the results are given as means±S.E.M.
(§3) Substrate specificity of the deltorphin transport system. […] These peptides consisted of 4-13 amino acids.
Relative affinities of endogenous opioid peptides for the transport system.

[2] = tested on: deltorphin II transport system in control ARPE-19 cells; assay: Inhibition of [^3H]deltorphin II uptake in control ARPE-19 cells; conditions: [^3H]deltorphin II 50 nM, 30 minutes, NaCl, peptide/antagonist 1 mM; for [^3H] Deltorphin II uptake: control ARPE-19 cells (pcDNA vector alone); for [^3H] Deltorphin II uptake (%) of control: control ARPE-19 cells, control = 100
Source text: as §1, §2, §3

[3] = tested on: enkephalin/endorphin transport system in SK—N—SH cells; assay: [^3H]deltorphin II uptake in SK—N—SH cells, effect of peptides and amino acids; conditions: for Deltorphin II uptake / effect on [^3H]deltorphin II uptake (in words): [^3H]deltorphin II 25 nM, NaCl, 30 minutes; for Deltorphin II uptake: compound 1 mM; for effect on [^3H]deltorphin II uptake (in words): test substance 1 mM
Protocol: as §2
Since enkephalins and endorphins are relevant to pain perception and to further provide evidence in support of a role for the transport system in opioidergic neurotransmission, the human neuronal cell line SK—N—SH was tested for expression of the transport system. […] Unless otherwise specified, procedures are as detailed in Example 1.
The concentration of enkephalins and dynorphins was 1 mM.
Finally, the relative affinity of various enkephalins and dynorphins for the transport system in SK—N—SH cells was determined.
To the further characterize the opioid transport of the present invention, various specific peptides that act as positive modulators of the enkephalin/endorphin transport system in the human neuronal cell line SK—N—SH were identified. Unless otherwise specified, procedures are as detailed in Example 1. […] Uptake was measured in the presence of NaCl for 30 minutes. The concentration of the dipeptides was 1 mM.
Uptake was measured in the presence of NaCl for 30 minutes. The concentration of the tripeptides was 1 mM.
Unless otherwise specified, procedures are as described in more detail in Example 1.
The dose-response relationship for the inhibition of the enkephalin/endorphin transport system by L-Lysine and its methyl and ethyl esters is shown in FIG. 15.

Tyr-Gly-Gly-Phe-Leu-Arg-Arg-IIe-Arg-Pro-Lys-Leu-Lys (YGGFLRRIRPKLK) [Dynorphin A (1-13)]
fold higher affinity than the shorter dynorphins (six to nine amino acids) ([1]; RPE cells): ~10 fold | [^3H] Deltorphin II uptake ([1]; [^3H]deltorphin II 50 nM): 0.07 ± 0.01 pmol/mg protein/30 min | [^3H] Deltorphin II uptake (%) of control ([1]; [^3H]deltorphin II 50 nM): 1% | [^3H] Deltorphin II uptake [2]: 0.04 ± 0.001 pmol/mg protein/30 min | [^3H] Deltorphin II uptake (%) of control [2]: 4% | IC50 ([3]; read-out: affinity for the transport system (concentration-dependent inhibition of [^3H]deltorphin II uptake), [^3H]deltorphin II 25 nM): 0.15 ± 0.01 µM

NCCCCCCN [Hexamethylenediamine]
Deltorphin II uptake [3]: 2.83 ± 0.13 pmol/30 min/mg protein

Try-Gly-Gly
effect on [^3H]deltorphin II uptake (in words) [3]: ability to stimulate the uptake

C[N+](C)(C)CCCC[C@H](N)C(=O)O [Trimethyl-L-Lys]
Deltorphin II uptake [3]: 2.39 ± 0.11 pmol/30 min/mg protein

CC(C)C[C@H](N)C(=O)O [L-leucine]
effect on [^3H]deltorphin II uptake (in words) [3]: significant inhibition

COC(=O)[C@@H](N)CCCCN [L-Lys-methyl ester, L-lysylmethyl ester]
Deltorphin II uptake [3]: 0.28 ± 0.01 pmol/30 min/mg protein | Ki ([3]; read-out: Ki for inhibition of deltorphin II uptake, dose-response studies): 169 ± 9 µM

CC(=O)NCCCC[C@H](N)C(=O)O [ε-N-acetyl-L-Lys]
Deltorphin II uptake [3]: 2.38 ± 0.13 pmol/30 min/mg protein

YGGFMRGL [[Arg^6, Gly^7, Leu^8[ Met-enkephalin]
[^3H] Deltorphin II uptake ([1]; [^3H]deltorphin II 50 nM): 0.09 ± 0.01 pmol/mg protein/30 min | [^3H] Deltorphin II uptake (%) of control ([1]; [^3H]deltorphin II 50 nM): 1% | [^3H] Deltorphin II uptake [2]: 0.04 ± 0.001 pmol/mg protein/30 min | [^3H] Deltorphin II uptake (%) of control [2]: 4%

NCCCCCC(=O)O [6-amino hexanoic acid]
Deltorphin II uptake [3]: 2.92 ± 0.18 pmol/30 min/mg protein

C[N+](C)(C)C[C@H](O)CC(=O)[O-] [L-Carnitine]
Deltorphin II uptake [3]: 2.34 ± 0.12 pmol/30 min/mg protein

NCCCC(=O)O [GABA]
Deltorphin II uptake [3]: 2.62 ± 0.13 pmol/30 min/mg protein

NCCC[C@H](N)C(=O)O [L-Ornitine]
Deltorphin II uptake [3]: 1.87 ± 0.08 pmol/30 min/mg protein

Gly-Gly-Gly
competition with deltorphin for the uptake process (in words) ([1]; Tat-ARPE-19 / RPE cells, [^3H]deltorphin II 50 nM, compound 1 mM): did not compete; also recorded: significant stimulation | [^3H] Deltorphin II uptake ([1]; [^3H]deltorphin II 50 nM): 9.68 ± 0.39 pmol/mg protein/30 min | [^3H] Deltorphin II uptake (%) of control ([1]; [^3H]deltorphin II 50 nM): 125% | effect on [^3H]deltorphin II uptake (in words) [3]: ability to stimulate the uptake

NCCCC[C@H](N)C(N)=O [L-Lys-amide]
Deltorphin II uptake [3]: 2.92 ± 0.09 pmol/30 min/mg protein

COC(=O)[C@H](CCCCN)NC(C)=O [α-N-acetyl-L-Lys-methyl ester]
Deltorphin II uptake [3]: 2.37 ± 0.20 pmol/30 min/mg protein

CC(=N)NCCCC[C@H](N)C(=O)O [L-NIL]
Deltorphin II uptake [3]: 2.40 ± 0.15 pmol/30 min/mg protein

NCCCCCN [1,5-diaminopentane]
Deltorphin II uptake [3]: 3.24 ± 0.16 pmol/30 min/mg protein

NCC(=O)CCC(=O)O [δ-amino-levulinic acid]
Deltorphin II uptake [3]: 2.68 ± 0.18 pmol/30 min/mg protein
